Read-outs that look alike come from different tables or passages of the source.
Tests used:
BaF3_EGFR d19/CS cells = assay: Biological Activity Assay D: BaF3 cell proliferation assay, EGFR exon 19 deletion/C797S (BaF3 d19/CS); assay type: cell-based; conditions: Ba/F3 EGFR, read-out: BaF3 d19/CS IC50
[1] = biological target: recombinant human EGFR exon 19 deletion/C797S double mutant protein (Homo sapiens (Human), UniProt P00533, C797S/DEL746-750); assay: Biological Activity Assay C: biochemical assay against EGFR exon 19 deletion/C797S protein (EGFR d19/CS)
Sequence of recombinant human EGFR exon 19 deletion/C797S double mutant protein (P00533 other isoform, or with tags, fused parts or gaps C797S/del 1-668/del 746-750 limits assumed): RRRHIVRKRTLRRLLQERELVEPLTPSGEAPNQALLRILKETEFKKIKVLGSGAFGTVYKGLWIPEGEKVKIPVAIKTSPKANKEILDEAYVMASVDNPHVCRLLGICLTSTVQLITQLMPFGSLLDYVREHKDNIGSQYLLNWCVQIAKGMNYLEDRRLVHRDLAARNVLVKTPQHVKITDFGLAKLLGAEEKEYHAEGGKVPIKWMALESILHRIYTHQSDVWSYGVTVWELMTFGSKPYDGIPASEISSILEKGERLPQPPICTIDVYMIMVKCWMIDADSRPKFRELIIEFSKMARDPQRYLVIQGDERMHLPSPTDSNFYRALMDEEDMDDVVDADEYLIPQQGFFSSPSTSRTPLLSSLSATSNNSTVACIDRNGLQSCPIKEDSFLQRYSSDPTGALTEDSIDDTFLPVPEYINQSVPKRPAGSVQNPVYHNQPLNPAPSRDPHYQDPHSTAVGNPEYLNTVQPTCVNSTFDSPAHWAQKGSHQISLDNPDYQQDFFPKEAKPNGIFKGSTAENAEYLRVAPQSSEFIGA
Outline: (§1)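 Compounds were tested as 16-point serial dilutions (final DMSO 2.5%) with a Phosphosens peptide sensor/ATP working solution (40 uM/4 mM). The signal was read kinetically over 90 cycles at 120 s intervals. IC50s came from 4-parameter fits of per-well slopes.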

Ba/F3_EGFR WT cells = assay: Biological Activity Assay D: BaF3 cell proliferation assay, EGFR wild-type (BaF3 WT); assay type: cell-based; conditions: Ba/F3 EGFR, read-out: BaF3 WT IC50
[2] = biological target: recombinant human EGFR L858R/C797S double mutant protein (Homo sapiens (Human), UniProt P00533, C797S/L858R); assay: Biological Activity Assay B: biochemical assay against EGFR L858R/C797S protein (EGFR LR/CS)
Sequence of recombinant human EGFR L858R/C797S double mutant protein (P00533 25-1210 C797S/L858R): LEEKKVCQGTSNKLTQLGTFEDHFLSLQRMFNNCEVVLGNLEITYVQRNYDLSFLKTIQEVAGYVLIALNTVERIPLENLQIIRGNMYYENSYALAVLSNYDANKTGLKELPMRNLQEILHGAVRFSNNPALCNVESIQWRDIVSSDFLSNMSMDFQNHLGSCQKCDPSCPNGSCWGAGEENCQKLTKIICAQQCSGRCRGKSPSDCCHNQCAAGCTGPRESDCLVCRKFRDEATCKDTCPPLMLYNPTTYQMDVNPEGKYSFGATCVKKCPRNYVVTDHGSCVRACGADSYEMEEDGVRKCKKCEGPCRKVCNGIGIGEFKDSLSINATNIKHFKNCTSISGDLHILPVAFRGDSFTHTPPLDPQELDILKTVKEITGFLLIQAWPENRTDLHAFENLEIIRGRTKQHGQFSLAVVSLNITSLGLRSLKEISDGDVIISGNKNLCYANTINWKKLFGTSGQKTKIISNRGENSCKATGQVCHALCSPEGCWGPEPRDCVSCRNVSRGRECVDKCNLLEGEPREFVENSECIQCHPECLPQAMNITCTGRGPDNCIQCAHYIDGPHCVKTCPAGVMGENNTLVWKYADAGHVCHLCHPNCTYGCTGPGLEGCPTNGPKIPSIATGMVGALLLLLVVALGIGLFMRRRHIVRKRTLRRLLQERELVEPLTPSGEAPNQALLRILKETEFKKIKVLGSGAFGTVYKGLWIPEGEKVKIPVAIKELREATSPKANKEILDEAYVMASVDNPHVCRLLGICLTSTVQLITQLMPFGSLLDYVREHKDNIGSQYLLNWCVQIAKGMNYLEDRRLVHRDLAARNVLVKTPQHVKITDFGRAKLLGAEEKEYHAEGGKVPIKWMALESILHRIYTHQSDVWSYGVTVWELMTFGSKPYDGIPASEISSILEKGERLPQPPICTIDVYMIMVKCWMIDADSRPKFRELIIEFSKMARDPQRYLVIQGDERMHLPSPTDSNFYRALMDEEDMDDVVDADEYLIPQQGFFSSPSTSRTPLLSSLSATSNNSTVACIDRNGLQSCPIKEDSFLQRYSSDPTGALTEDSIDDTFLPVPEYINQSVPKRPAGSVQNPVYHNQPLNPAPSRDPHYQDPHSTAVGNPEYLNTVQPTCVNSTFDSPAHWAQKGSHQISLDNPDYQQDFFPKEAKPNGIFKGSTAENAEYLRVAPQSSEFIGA
Outline: as §1

BaF3_EGFR LR/CS cells = assay: Biological Activity Assay D: BaF3 cell proliferation assay, EGFR L858R/C797S mutant (BaF3 LR/CS); assay type: cell-based; conditions: Ba/F3 EGFR, read-out: BaF3 LR/CS IC50
[3] = BaF3_EGFR d19/CS cells, ~72 hours, CellTiter-Glo
[4] = Ba/F3_EGFR WT cells, ~72 hours, CellTiter-Glo
[5] = BaF3_EGFR LR/CS cells, ~72 hours, CellTiter-Glo

Compound	IC50 (BaF3_EGFR d19/CS cells; [3]) [nM]	IC50 [1] [nM]	IC50 (Ba/F3_EGFR WT cells; [4]) [nM]	IC50 [2] [nM]	IC50 (BaF3_EGFR LR/CS cells; [5]) [nM]	IC50 (BaF3_EGFR d19/CS cells; 72 h) [nM]	IC50 (Ba/F3_EGFR WT cells; 72 h) [nM]	IC50 (BaF3_EGFR LR/CS cells; 72 h) [nM]
Fc1ccc(-c2nn(C3COC3)cc2-c2ncnc3oc(-c4ccccc4)cc23)cc1 [Example 31, 4-[3-(4-Fluorophenyl)-1-(oxetan-3-yl)-1H-pyrazol-4-yl]-6-phenylfuro[2,3-d]pyrimidine]	66.5	0.446	3320	0.521	97.9			
Fc1ccc(-c2nn(CC3(F)COC3)cc2-c2ncnc3oc(-c4ccccc4)cc23)cc1 [Example 32, 4-{1-[(3-fluorooxetan-3-yl)methyl]-3-(4-fluorophenyl)-1H-pyrazol-4-yl}-6-phenylfuro[2,3-d]pyrimidine]	114	1.26	4730	1.36	130			
CN1CCN(c2ccc(-c3cc4c(-c5cn(CCCO)nc5-c5ccc(F)cc5)ncnc4o3)cc2)CC1 [Example 33, 3-[3-(4-Fluorophenyl)-4-{6-[4-(4-methylpiperazin-1-yl)phenyl]furo[2,3-d]pyrimidin-4-yl}-1H-pyrazol-1-yl]propan-1-ol]	1.08	0.119	38	0.212	1.16			
CC(C)(O)CCn1cc(-c2ncnc3oc(-c4ccccc4)cc23)c(-c2ccc(F)cc2)n1 [Example 34, 4-[3-(4-fluorophenyl)-4-(6-phenylfuro[2,3-d]pyrimidin-4-yl)-1H-pyrazol-1-yl]-2-methylbutan-2-ol]	122	1.59	7780	1.17	225			
OCCCc1nc(-c2ccc(F)cc2)c(-c2ncnc3oc(-c4ccccc4)cc23)o1 [Example 35, 3-[4-(4-Fluorophenyl)-5-(6-phenylfuro[2,3-d]pyrimidin-4-yl)-1,3-oxazol-2-yl]propan-1-ol]		0.54		0.958		185	5950	134
CNC(=O)CCc1nc(-c2ccc(F)cc2)c(-c2ncnc3oc(-c4ccccc4)cc23)o1 [Example 36, 3-[4-(4-fluorophenyl)-5-(6-phenylfuro[2,3-d]pyrimidin-4-yl)-1,3-oxazol-2-yl]-N-methylpropanamide]	339	1.35	20000	1.13	209			
CN(C)C(=O)CCc1nc(-c2ccc(F)cc2)c(-c2ncnc3oc(-c4ccccc4)cc23)o1 [Example 37, 3-[4-(4-fluorophenyl)-5-(6-phenylfuro[2,3-d]pyrimidin-4-yl)-1,3-oxazol-2-yl]-N,N-dimethylpropanamide]	514	2.6	6280	1.87	318			
CS(=O)(=O)CCn1cc(-c2ncnc3oc(-c4ccccc4)cc23)c(-c2ccc(F)cc2)n1 [Example 38, 4-{3-(4-Fluorophenyl)-1-[2-(methanesulfonyl)ethyl]-1H-pyrazol-4-yl}-6-phenylfuro[2,3-d]pyrimidine]	44.8	0.856	2170	0.434	121			
CS(=O)(=O)n1cc(-c2ncnc3oc(-c4ccccc4)cc23)c(-c2ccc(F)cc2)n1 [Example 39, 4-[3-(4-fluorophenyl)-1-(methanesulfonyl)-1H-pyrazol-4-yl]-6-phenylfuro[2,3-d]pyrimidine]	147	5.19	1920	6.14	161			
O=S1(=O)CC(n2cc(-c3ncnc4oc(-c5ccccc5)cc34)c(-c3ccc(F)cc3)n2)C1 [Example 40, 3-[3-(4-Fluorophenyl)-4-(6-phenylfuro[2,3-d]pyrimidin-4-yl)-1H-pyrazol-1-yl]-1λ6-thietane-1,1-dione]	22	0.192	2100	0.327	36.4			
O=S1(=O)CCC(n2cc(-c3ncnc4oc(-c5ccccc5)cc34)c(-c3ccc(F)cc3)n2)C1 (centres unmarked) [Example 41, 3-[3-(4-fluorophenyl)-4-(6-phenylfuro[2,3-d]pyrimidin-4-yl)-1H-pyrazol-1-yl]-1λ6-thiolane-1,1-dione]	34.7	0.375	2390	0.518	61.6			
O[C@H]1C[C@@H](Cn2cc(-c3ncnc4oc(-c5ccccc5)cc34)c(-c3ccc(F)cc3)n2)C1 [Example 42, (1s, 3s)-3-{[3-(4-Fluorophenyl)-4-(6-phenylfuro[2,3-d]pyrimidin-4-yl)-1H-pyrazol-1-yl]methyl}cyclobutan-1-ol]	37.5	0.335	2090	0.527	57.5			
O[C@H]1C[C@H](Cn2cc(-c3ncnc4oc(-c5ccccc5)cc34)c(-c3ccc(F)cc3)n2)C1 [Example 43, (1r,3r)-3-{[3-(4-Fluorophenyl)-4-(6-phenylfuro[2,3-d]pyrimidin-4-yl)-1H-pyrazol-1-yl]methyl}cyclobutan-1-ol]	40	0.24	2240	0.39	73.2			
CC(C)(O)CCc1nc(-c2ccc(F)cc2)c(-c2ncnc3oc(-c4ccccc4)cc23)o1 [Example 44, 4-[4-(4-fluorophenyl)-5-(6-phenylfuro[2,3-d]pyrimidin-4-yl)-1,3-oxazol-2-yl]-2-methylbutan-2-ol]	421	1.79	6650	2.76	263			
Fc1ccc(-c2nn(CCCC(F)F)cc2-c2ncnc3oc(-c4ccccc4)cc23)cc1 [Example 45, 4-[1-(4,4-Difluorobutyl)-3-(4-fluorophenyl)-1H-pyrazol-4-yl]-6-phenylfuro[2,3-d]pyrimidine]	37.5	1.51	2290	1.12	185			
CC(C)(O)Cn1cc(-c2ncnc3oc(-c4ccccc4)cc23)c(-c2ccc(F)cc2)n1 [Example 46, 1-[3-(4-Fluorophenyl)-4-(6-phenylfuro[2,3-d]pyrimidin-4-yl)-1H-pyrazol-1-yl]-2-methylpropan-2-ol]	21.1	0.317	2160	0.389	41.1			
Fc1ccc(-c2nn(CC3COC3)cc2-c2ncnc3oc(-c4ccccc4)cc23)cc1 [Example 47, 4-{3-(4-Fluorophenyl)-1-[(oxetan-3-yl)methyl]-1H-pyrazol-4-yl}-6-phenylfuro[2,3-d]pyrimidine]	72.5	0.473	4530	0.594	92.5			
NC(=O)CCc1nc(-c2ccc(F)cc2)c(-c2ncnc3oc(-c4ccccc4)cc23)o1 [Example 49, 3-[4-(4-fluorophenyl)-5-(6-phenylfuro[2,3-d]pyrimidin-4-yl)-1,3-oxazol-2-yl]propanamide]	250	1.77	20000	3.42	132			
CN(C)S(=O)(=O)CCn1cc(-c2ncnc3oc(-c4ccccc4)cc23)c(-c2ccc(F)cc2)n1 [Example 50, 2-[3-(4-fluorophenyl)-4-(6-phenylfuro[2,3-d]pyrimidin-4-yl)-1H-pyrazol-1-yl]-N,N-dimethylethane-1-sulfonamide]	59.1	1.02	2080	0.635	241			

From patent US20250034159A1, “INHIBITORS OF EPIDERMAL GROWTH FACTOR RECEPTOR” (ORIC Pharmaceuticals, Inc., priority 2021, published 2025)
